The values that follow come from patent US12590100B2, “Tetrahydro-spiroindoline-pyrrolopyrrole-triones inhibitors of the NRF2-β-TrCP interaction for use in the treatment of fatty liver disease” (Universidad Autonoma De Madrid, priority 2021, dated 2026).

For one experiment, the system named is NRF2-regulated genes. Description: mRNA of NRF2-regulated genes in MEFs (qRT-PCR). The class given is cell-based, mouse. Particulars: PHAR 10 μM, 8 h. As for the experimental part:
FIG. 4. PHAR activates the NRF2 pathway. MEFs in serum-depleted conditions were subjected to (A-C) 1 μM, 3 μM, or 10 μM of PHAR and 10 μM of SFN as a positive control for 16 h; or (D-F) 10 μM of PHAR for the indicated times. In both experiments, 0.1% DMSO was used as a vehicle. A), representative immunoblots of NRF2, HO1, KEAP1, LAMINB, and GAPDH as loading controls. B) and C), densitometric analysis of NRF2 and HO1 protein levels of the representative immunoblots depicted in (A), expressed as a ratio of NRF2/LAMINB or HO1/GAPDH. The data is depicted as means±SEM (n=3). Statistical analysis was performed with one-way ANOVA followed by the Bonferroni test to check inter-group differences. *p<0.05; ***p<0.001 vs. 0. D), representative immunoblots of NRF2, HO1, KEAP1, LAMINB, and GAPDH as loading controls. E) and F), Densitometric analysis of NRF2 and HO1 protein levels of the representative immunoblots of (D), expressed as a ratio of NRF2/LAMINB or HO1/GAPDH. The data is depicted as means±SEM (n=3). Statistical analysis was performed with one-way ANOVA followed by the Bonferroni test to check inter-group differences. *p<0.05; ***p<0.001 vs. 0. […] Luciferase activity was measured after 16 h of treatment. […] The mRNA levels of Hmox1, Nqo1, Aox1, Glc, and Gclm after 8 h of treatment were determined by means of pRT-PCR and normalized by means of average LaminB, Gapdh, and β-actin. […]
On the technique in general: Real-time PCR tracks product formation cycle by cycle.

A further experiment deals with NRF2. Description: NRF2 and HO-1 protein levels in mouse tissues after IP treatment. The class given is in vivo. Particulars: C57BL/6 mice. As for the experimental part: FIG. 9. PHAR activates NRF2 and HO-1 in liver. A), UV and MS spectrum derived from the HPLC-MS analysis of PHAR dissolved in methanol for the identification of peaks associated with the compound. A blue rectangle surrounds the mass associated with PHAR. (B-D), the mice were treated with the vehicle (Tween-80+PBS, 1:13), 50 mg/kg of PHAR, or 50 mg/kg of SFN (saline) as a positive control by means of intraperitoneal (IP) injection for 2 hours. B), HPLC-MS UV and MS spectra derived from representative liver samples of both experimental groups used for determining PHAR levels in the liver 120 min after a single IP injection of 50 mg/kg. A blue rectangle surrounds the mass associated with PHAR. C), representative immunoblots showing NRF2, HO1, and LAMINB protein levels as the liver extract loading control. D), densitometric analysis of NRF2 protein levels of the representative immunoblots shown in (C), expressed as a ratio of NRF2/LAMINB. Statistical analysis was performed with one-way ANOVA followed by the Bonferroni test to compare inter-group differences. ***p<0.001 vs. vehicle. E) and F), the mice were treated daily with vehicle (Tween-80+PBS, 1:13) or 50 mg/kg of PHAR by means of intraperitoneal injection for 5 days. E), representative immunoblots showing NRF2, HO1, and LAMINB protein levels as loading control in brain, liver and kidney. F), densitometric analysis of NRF2 and HO1 protein levels in the liver tissue of the representative immunoblots shown in (E), expressed as a ratio of NRF2/LAMINB or HO1/LAMINB levels. Statistical analysis was performed with a Student t test to compare inter-group differences. **p<0.01 vs. vehicle.
Once the mechanism of action of PHAR was deciphered, the capacity thereof to induce NRF2 levels in a murine model was evaluated. C57BL/6 mice received a single intraperitoneal (IP) injection of 50 mg/kg PHAR (Tween-80+PBS, 1:13) or 50 mg/kg of SFN (saline) as a positive control. The UV spectrum derived from the HPLC-MS study of the PHAR compound dissolved in methanol alone helped the identification of the peak associated with the compound for subsequent identification in the tissue analysis. […] Taking this as a reference point, liver tissue analysis was performed to check for the presence of PHAR therein.
For this reason, C57BL/6 mice were treated daily by IP route for 5 days with 50 mg/kg of vehicle or 50 mg/kg of PHAR.

Consider `O=C1[C@@H]2[C@H](Cc3c[nH]c4ccccc34)N[C@]3(C(=O)Nc4ccc(Cl)cc43)[C@@H]2C(=O)N1c1ccc2c(c1)OCCO2` [PHAR], for which, in the experiment with NRF2-regulated genes, the “transcripts of Hmox1, Nqo1, Aox1, Gclc, Gclm” value is “increase in the corresponding transcripts was observed in all the cases”. Besides, in the experiment with NRF2 (IP 50 mg/kg daily for 5 days), the “HO1 levels in kidney” value is on record as “not further increased”; the “NRF2 and HO1 levels in brain” value was “not modified”. Moreover, the “NRF2 and HO-1 in liver” value in the experiment on NRF2 (IP 50 mg/kg daily for 5 days, 120 minutes after last administration) is “significant increase of NRF2 and HO-1 in liver”. In the experiment with NRF2 (single IP 50 mg/kg, 120 min), the “liver HO-1 levels” value was “did not result in increased HO-1 levels” and the “liver NRF2 levels” value is given as “significant NRF2 accumulation”.
